“Also recorded” adds a separate entry of the source. Where two headings read alike, the source gives them in different places.
T1: Dendroides canadensis antifreeze protein DAFP-1 (SEQ. ID 1, amino acid 28 through amino acid 108) (Dendroides canadensis, UniProt O46352)
T1 construct: b42 prefers 28-108
T1 sequence (O46352 26-108): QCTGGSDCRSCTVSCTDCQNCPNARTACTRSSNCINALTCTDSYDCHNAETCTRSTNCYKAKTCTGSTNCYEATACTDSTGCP

B1: DAFP-1: Dendroides canadensis antifreeze protein, recombinantly expressed in E. coli; SEQ. ID 1 amino acids 28 through 108 (protein, listed as Dendroides canadensis)
chain: TGGSDCRSCTVSCTDCQNCPNARTACTRSSNCINALTCTDSYDCHNAETCTRSTNCYKAKTCTGSTNCYEATACTDSTGCP
notes: Dendroides canadensis antifreeze protein, recombinantly expressed in E. coli; ID 1 amino acids 28 through 108

Key:
[1] = system: DAFPs: DAFP-1, -2, -4, and -6; experiment: TH enhancement by exemplified enhancers for DAFPs; format: biochemical, Dendroides canadensis
DAFP-1 = experiment: Antifreeze (TH) activity measurements by differential scanning calorimetry: enhancement of TH activity of DAFP-1; format: biochemical, Dendroides canadensis; settings: for enhancement ability for the TH activity of DAFP-1 (in words, relative) / molar enhancement effectiveness order: pH 7.5; for molar enhancement effectiveness order: FIG. 2 and FIG. 3
Source text: (§1) The pH of the final samples was 7.5.

[2] = Solubility of enhancer in the TH test system; format: physicochemical
Source text: as §1

[3] = target: T1, Dendroides canadensis antifreeze protein DAFP-1 (SEQ. ID 1, amino acid 28 through amino acid 108); experiment: Size-exclusion HPLC (Hummel and Dreyer gel filtration method) of NADH binding to DAFP-1; settings: pH 7.00, ambient temperature, DAFP-1 1.5-20 μM, NADH 0-270 μM, nonlinear regression
Procedure: The formation of 1:1 complex of DAFP-1 and NADH was further confirmed by HPLC analysis. With the gel filtration method of Hummel and Dreyer, the size exclusion column can be equilibrated with a buffer containing the ligand at a known concentration. The protein sample prepared in the buffer (containing the ligand at the same concentration) is injected into the equilibrated column. If binding occurs, the concentrations of the ligand in the elution buffer and in the elution are usually different. […] The bound ligand can be determined more precisely using the internal calibration method. […]
The binding of NADH to DAFP-1 was characterized using HPLC by an improved gel filtration method of Hummel and Dreyer (Hummel and Dreyer, 1962; Parsons, 1980). […] The eluates were monitored at 220 nm. […] The initial concentrations of NADH were determined using the molar extinction coefficient (ε340=6.22×10^3M^−1cm^−1) (Dawson et al., 1985). […] The amount of bound NADH was determined by the internal calibration method (Parsons 1980; Sun and Hsiao, 1993). The amount of free NADH is obtained fromthe difference of total NADH and calculated bound NADH. […]

| Molecule | enhancement ability for the TH activity of DAFP-1 (in words, relative) (DAFP-1; DSC, DAFP-1 453 μM) | molar enhancement effectiveness order (DAFP-1; DSC, DAFP-1 453 μM) | other results |
| --- | --- | --- | --- |
| O=C[C@H](F)[C@@H](O)[C@H](O)[C@H](O)CO [2-fluoro-2-deoxy-D-glucose] | – | – | increase of the TH activity of DAFPs [1]: 2 fold |
| O=c1[nH]c(=O)n([C@@H]2O[C@H](CO)[C@@H](O)[C@H]2O)cc1F [5-Fluorouridine] | – | – | increase of the TH activity of DAFPs [1]: 2 fold |
| Nc1ncnc2c1ncn2[C@@H]1O[C@H](COP(=O)(O)OP(=O)(O)O)[C@@H](O)[C@H]1O [ADP, adenosine 5′-diphosphate] | less than that of ADPR; also recorded: lower than that of AMP | – | – |
| Nc1ncnc2c1ncn2[C@@H]1O[C@H](COP(=O)(O)OP(=O)(O)OC[C@H]2OC(O)[C@H](O)[C@@H]2O)[C@@H](O)[C@H]1O (stereo partly shown) [ADPR, adenosine 5′-diphosphoribose] | most efficient enhancement ability among these fragments | ADPR>AMP>adenosine>R5P>pyrophosphate>ribose | – |
| Nc1ncnc2c1ncn2[C@@H]1O[C@H](COP(=O)(O)O)[C@@H](O)[C@H]1O [AMP, (−)-adenosine 5′-monophosphate] | – | ADPR>AMP>adenosine>R5P>pyrophosphate>ribose | – |
| Nc1ncnc2c1ncn2[C@@H]1O[C@H](COP(=O)(O)OP(=O)(O)OP(=O)(O)O)[C@@H](O)[C@H]1O [ATP] | – | – | increase of the TH activity of DAFPs [1]: at least 5 fold |
| CC(C)(COP(=O)(O)OP(=O)(O)OC[C@H]1O[C@@H](n2cnc3c(N)ncnc32)[C@H](O)[C@@H]1OP(=O)(O)O)[C@@H](O)C(=O)NCCC(=O)NCCS [CoA, coenzyme A] | less than those of NADH and NAD analogs | – | – |
| Cc1cc2nc3c(=O)[nH]c(=O)nc-3n(C[C@H](O)[C@H](O)[C@H](O)COP(=O)(O)OP(=O)(O)OC[C@H]3O[C@@H](n4cnc5c(N)ncnc54)[C@H](O)[C@@H]3O)c2cc1C [FAD, flavin adenine dinucleotide] | less than those of NADH and NAD analogs | – | solubility (in words) [2]: limited by its solubility |
| NC(=O)c1ccc[n+]([C@@H]2O[C@H](COP(=O)([O-])OP(=O)(O)OC[C@H]3O[C@@H](n4cnc5c(N)ncnc54)[C@H](O)[C@@H]3O)[C@@H](O)[C@H]2O)c1 [NAD, (3-nicotinamide adenine dinucleotide] | very similar to that of its reduced form, NADH, although slightly lower | NADH>NAD>TNAD>PAAD | – |
| NC(=O)C1=CN([C@@H]2O[C@H](COP(=O)(O)OP(=O)(O)OC[C@H]3O[C@@H](n4cnc5c(N)ncnc54)[C@H](O)[C@@H]3O)[C@@H](O)[C@H]2O)C=CC1 [NADH, (3-nicotinamide adenine dinucleotide, reduced] | – | NADH>NAD>TNAD>PAAD | Kd [3]: 280 ± 20 nM |
| NC(=O)C1=CN([C@@H]2O[C@H](COP(=O)(O)OP(=O)(O)OC[C@H]3O[C@@H](n4cnc5c(N)ncnc54)[C@H](OP(=O)(O)O)[C@@H]3O)[C@@H](O)[C@H]2O)C=CC1 [NADPH, (3-nicotinamide adenine dinucleotide phosphate, reduced] | most efficient enhancer; also recorded: much higher than any of the known enhancers | – | – |
| Nc1ncnc2c1ncn2C1OC(COP(=O)(O)OP(=O)(O)OCC2OC([n+]3cccc(C=O)c3)C(O)C2O)C(O)C1O (stereo not shown) [PAAD, 3-pyridine aldehyde adenine dinucleotide] | very efficient enhancement ability; also recorded: least effective enhancer among the analogs | NADH>NAD>TNAD>PAAD | – |
| O=C[C@H](O)[C@H](O)[C@H](O)COP(=O)(O)O [R5P, D-ribose-5-phosphate] | – | ADPR>AMP>adenosine>R5P>pyrophosphate>ribose | – |
| NC(=S)c1ccc[n+]([C@@H]2O[C@H](COP(=O)([O-])OP(=O)(O)OC[C@H]3O[C@@H](n4cnc5c(N)ncnc54)[C@H](O)[C@@H]3O)[C@@H](O)[C@H]2O)c1 [TNAD, thionicotinamide adenine dinucleotide] | very efficient enhancement ability | NADH>NAD>TNAD>PAAD | – |
| Nc1ncnc2c1ncn2[C@@H]1O[C@H](CO)[C@@H](O)[C@H]1O [adenosine] | – | ADPR>AMP>adenosine>R5P>pyrophosphate>ribose | enhancement ability for the TH activity of DAFP-1 at 0.080M (DAFP-1; enhancer 0.080M): lower than that of ADP; solubility (in words) ([2]; TH test system): low solubility |
| O=P(O)(O)OP(=O)(O)O [pyrophosphate] | – | ADPR>AMP>adenosine>R5P>pyrophosphate>ribose | – |
| O=C[C@H](O)[C@H](O)[C@H](O)CO [ribose, D-(−)-ribose] | least enhancement | ADPR>AMP>adenosine>R5P>pyrophosphate>ribose | – |
| B1 | – | – | TH activity of the protein sample alone (DAFP-1; DAFP-1 453 μM, no enhancer, DSC): 0.69±0.01 °C; TH activity of DAFP-1 as a function of pH (DAFP-1; pH 2 to pH 12): unchanged |

From patent publication US10426159B1, “Highly efficient enhancers for antifreeze protein activity” (The Trustees of California State University, priority 2012, dated 2019)
